Source: US20130190217A1, “ESTER OILS” (PANOLIN Holding AG, priority 2010, published 2013)
Values joined by “and” are separate entries in the source; they are usually repeats but may differ in a detail not shown here. Equal entries are not always repeated. Blank lines part the entries; values can stand above or below the compound they belong to.

Key:
Kinematic viscosity = assay type: physicochemical
Pour point = assay type: physicochemical
From the text: In addition, the inventive ester oils have a high flashpoint, such that use at relatively high oil sump and component temperatures is possible without risk. In addition, the pour point of the ester oils is relatively low, as a result of which the esters are also usable at low temperatures. For a liquid product, the pour point denotes the temperature at which it is still just free-flowing in the course of cooling. Thus, the inventive ester oils can be used within a broad temperature range.

Flashpoint = assay type: physicochemical
Viscosity index (VI) = assay type: physicochemical
[1] = NOACK vaporization (physical vaporization according to Noack, 250° C. for 1 h); assay type: physicochemical
From the text: Trimethylolpropane esters (TMP-C8/C10) are commercially available from various suppliers and have been used for comparative purposes.

[2] = taken from safety data sheets; cited from earlier work
Density = assay type: physicochemical; details: Table 3
[3] = taken from safety data sheets; cited from earlier work; remark: listed apart in the source
[4] = High-Temperature High-Shear Viscosity (HTHS); assay type: physicochemical; details: 150° C.
Description: (§1) For the C12D13 esters and the C10D13 esters, three independently prepared samples were included in each case. For the C9D13 ester and for the D5C18 ester, one sample was analyzed in each case. The “CCS−25° C. [mPas]” and “CCS−20° C. [mPas]” columns each contain figures for the “Cold Crank Simulator” according to the standard ASTM D5293 at −25° C. and −20° C. The HTHS150° C. [mPas] column indicates what is called the “High-Temperature High-Shear Viscosity” (HTHS) at elevated temperature.

[5] = UBA number 4203; cited from earlier work
[6] = Cold Crank Simulator according to ASTM D5293; assay type: physicochemical
Description: as §1

[7] = taken from safety data sheets; cited from earlier work; remark: listed apart in the source
[8] = Table 3, listed as C10D13 (4th sample)
[9] = Table 3, listed as C10D13 (5th sample)
[10] = Table 3, listed as C12D13 (1st sample)
[11] = Table 3, listed as C12D13 (2nd sample)
[12] = Table 3, listed as C12D13 (3rd sample)

Compound: CCCCCCCCC(CCCCCC)COC(=O)CCCCCCCC(=O)OCC(CCCCCC)CCCCCCCC (stereo not drawn) [Bis(2-hexyldecyl) azelate]
η40° C. (Kinematic viscosity; Table 2, 40° C.): 33.0 mm^2/s
η100° C. (Kinematic viscosity; Table 2, 100° C.): 6.60 mm^2/s
Pour point (Pour point; Table 2, base oil): −64 °C
Flashpoint (Flashpoint; Table 2, base oil): 278 °C
VI (Viscosity index (VI); Table 2, base oil): 160

Compound: CC(C)CCCCCCCCCCOC(=O)CCCCCCCC(=O)OCCCCCCCCCCC(C)C [C9D13, di(isotridecyl)nonanedioate]
η40° C. (Kinematic viscosity; Table 2, 40° C.): 42.4 mm^2/s
η100° C. (Kinematic viscosity; Table 2, 100° C.): 6.82 mm^2/s
η40° C. (Kinematic viscosity; Table 3, 40° C.): 36.1 mm^2/s
η100° C. (Kinematic viscosity; Table 3, 100° C.): 6.8 mm^2/s
NOACK ([1]; Table 2, base oil): 4.0%
NOACK ([1]; Table 3, 250° C. for 1 h): 3.5%
Pour point (Pour point; Table 2, base oil): −39 °C
Flashpoint (Flashpoint; Table 2, base oil): 258 °C
VI (Viscosity index (VI); Table 2, base oil): 124
VI (Viscosity index (VI); Table 3): 150

Compound: CC(C)CCCCCCCCCCOC(=O)CCCCCCCCC(=O)OCCCCCCCCCCC(C)C [C10D13, di(isotridecyl)decanedioate]
η40° C. (Kinematic viscosity; Table 3, 40° C., listed as C10D13 (4th sample)): 35.5 mm^2/s
η40° C. (Kinematic viscosity; Table 3, 40° C., listed as C10D13 (5th sample)): 36.0 mm^2/s
η40° C. (Kinematic viscosity; Table 3, 40° C., listed as C10D13 (6th sample)): 35.7 mm^2/s
η100° C. (Kinematic viscosity; Table 3, 100° C., listed as C10D13 (4th sample)): 7.2 mm^2/s
η100° C. (Kinematic viscosity; Table 3, 100° C., listed as C10D13 (5th sample)): 6.8 mm^2/s
η100° C. (Kinematic viscosity; Table 3, 100° C., listed as C10D13 (6th sample)): 6.7 mm^2/s
NOACK ([1]; Table 3, 250° C. for 1 h, listed as C10D13 (4th sample)): 2.7%
NOACK ([1]; Table 3, 250° C. for 1 h, listed as C10D13 (5th sample)): 4%
NOACK ([1]; Table 3, 250° C. for 1 h, listed as C10D13 (6th sample)): 3.4%
Pour point (Pour point; [8]): −52 °C
Pour point (Pour point; [9]): −50 °C
Flashpoint (Flashpoint; Table 3): 250 °C
VI (Viscosity index (VI); [8]): 172
VI (Viscosity index (VI); [9]): 150
VI (Viscosity index (VI); Table 3, listed as C10D13 (6th sample)): 149

Compound: CC(C)CCCCCCCCCCOC(=O)CCCCCCCCCCC(=O)OCCCCCCCCCCC(C)C [C12D13, di(isotridecyl)dodecanedioate]
Aquatic toxicity OECD 202 [2]: 880 mg/L
η40° C. (Kinematic viscosity; Table 2, 40° C.): 42.0 mm^2/s
η100° C. (Kinematic viscosity; Table 2, 100° C.): 7.5 mm^2/s
η40° C. (Kinematic viscosity; Table 3, 40° C., listed as C12D13 (1st sample)): 40.47 mm^2/s
η40° C. (Kinematic viscosity; Table 3, 40° C., listed as C12D13 (2nd sample)): 42.0 mm^2/s
η40° C. (Kinematic viscosity; Table 3, 40° C., listed as C12D13 (3rd sample)): 41.2 mm^2/s
η100° C. (Kinematic viscosity; Table 3, 100° C., listed as C12D13 (1st sample)): 7.573 mm^2/s
η100° C. (Kinematic viscosity; Table 3, 100° C., listed as C12D13 (2nd sample)): 7.5 mm^2/s
η100° C. (Kinematic viscosity; Table 3, 100° C., listed as C12D13 (3rd sample)): 7.6 mm^2/s
η150° C. (Kinematic viscosity; Table 3, 150° C.): 3.45 mm²/s
NOACK ([1]; Table 2, base oil): 5.7%
NOACK ([1]; Table 3, 250° C. for 1 h, listed as C12D13 (1st sample)): 2.4%
NOACK ([1]; Table 3, 250° C. for 1 h, listed as C12D13 (2nd sample)): 4.3%
NOACK ([1]; Table 3, 250° C. for 1 h, listed as C12D13 (3rd sample)): 2.9%
Pour point (Pour point; Table 2, base oil): −57 °C
Pour point (Pour point; [10]): −48 °C
Pour point (Pour point; [11]): −57 °C
Pour point (Pour point; [12]): −51 °C
Flashpoint (Flashpoint; Table 2, base oil): 277 °C
Flashpoint (Flashpoint; [10]): 276 °C
Flashpoint (Flashpoint; [11]): 277 °C
Flashpoint (Flashpoint; [12]): 261 °C
Density (Density; listed as C12D13 (1st sample)): 0.9051 g/mL
Density (Density; listed as C12D13 (2nd sample)): 0.9020 g/mL
Density (Density; listed as C12D13 (3rd sample)): 0.904 g/mL
VI (Viscosity index (VI); Table 2, base oil): 158
VI (Viscosity index (VI); [10]): 158
VI (Viscosity index (VI); [11]): 147
VI (Viscosity index (VI); [12]): 156
Aquatic toxicity OECD 203 [3]: >1000 mg/L
HTHS150° C. [4]: 2.7 mPa·s
water endangerment class (WGK) [5]: WGK 1
CCS−20° C. ([6]; listed as C12D13 (1st sample)): 1910 mPas
CCS−20° C. ([6]; listed as C12D13 (2nd sample)): 1700 mPas
CCS−25° C. ([6]; listed as C12D13 (1st sample)): 3210 mPas
CCS−25° C. ([6]; listed as C12D13 (3rd sample)): 3230 mPas

Compound: CC(C)CCCCCCCCCCCCCCC(=O)OCC(C)(C)COC(=O)CCCCCCCCCCCCCCC(C)C [D5C18, neopentyl glycol di(isostearate)]
Aquatic toxicity OECD 202 [2]: >1000 mg/L
η40° C. (Kinematic viscosity; Table 3, 40° C.): 46.0 mm^2/s
η100° C. (Kinematic viscosity; Table 3, 100° C.): 8.0 mm^2/s
NOACK ([1]; Table 3, 250° C. for 1 h): 2.0%
Pour point (Pour point; Table 3): −44 °C
Flashpoint (Flashpoint; Table 3): 280 °C
VI (Viscosity index (VI); Table 3): 146
Aquatic toxicity OECD 203 [3]: >10 000 mg/l
Aquatic toxicity OECD 201 [7]: >1000 mg/L

Compound: CC(C)CCCCCCCCCCOC(=O)CCCCC(=O)OCCCCCCCCCCC(C)C [DITA, diisotridecyl adipate, reference compound]
Aquatic toxicity OECD 202 [2]: >100 mg/L
η40° C. (Kinematic viscosity; Table 2, 40° C.): 27.0 mm^2/s
η100° C. (Kinematic viscosity; Table 2, 100° C.): 5.4 mm^2/s
η40° C. (Kinematic viscosity; Table 3, 40° C.): 25 mm^2/s
η100° C. (Kinematic viscosity; Table 3, 100° C.): 5 mm^2/s
NOACK ([1]; Table 2, base oil): 8-10%
NOACK ([1]; Table 3, 250° C. for 1 h): 10.0%
Pour point (Pour point; Table 2, base oil): −51 °C
Pour point (Pour point; Table 3): −60 °C
Flashpoint (Flashpoint; Table 2, base oil): 227 °C
Flashpoint (Flashpoint; Table 3): 244 °C
Density (Density): 0.91 g/mL
VI (Viscosity index (VI); Table 2, base oil): 139
VI (Viscosity index (VI); Table 3): 139
Aquatic toxicity OECD 201 [7]: >1000 mg/L
CCS−20° C. [6]: 1455 mPas
CCS−25° C. [6]: 2646 mPas

Compound: CC(C)CCCCCCCOC(=O)CCCCCCCCCCC(=O)OCCCCCCCC(C)C [Di(isodecyl) dodecanedioate]
η40° C. (Kinematic viscosity; Table 2, 40° C.): 25.7 mm^2/s and 23.4 mm^2/s
η100° C. (Kinematic viscosity; Table 2, 100° C.): 5.58 mm^2/s and 5.2 mm^2/s
NOACK ([1]; Table 2, base oil): 3.5% and 4.3%
Flashpoint (Flashpoint; Table 2, base oil): 266 °C
VI (Viscosity index (VI); Table 2, base oil): 161 and 162

Compound: CC(C)CCCCCCCOC(=O)CCCCC(=O)OCCCCCCCC(C)C [Diisodecyl adipate]
η40° C. (Kinematic viscosity; Table 2, 40° C.): 14.0 mm^2/s
η100° C. (Kinematic viscosity; Table 2, 100° C.): 3.10 mm^2/s
NOACK ([1]; Table 2, base oil): 15.5%
Pour point (Pour point; Table 2, base oil): −60 °C
Flashpoint (Flashpoint; Table 2, base oil): 235 °C
VI (Viscosity index (VI); Table 2, base oil): 148

Compound: Di(C9) dodecanedioate
η40° C. (Kinematic viscosity; Table 2, 40° C.): 24.8 mm^2/s
η100° C. (Kinematic viscosity; Table 2, 100° C.): 5.6 mm^2/s
NOACK ([1]; Table 2, base oil): 5.0%
Flashpoint (Flashpoint; Table 2, base oil): 245 °C
VI (Viscosity index (VI); Table 2, base oil): 189

Compound: Di(iso-C9) dodecanedioate
η40° C. (Kinematic viscosity; Table 2, 40° C.): 23.2 mm^2/s
η100° C. (Kinematic viscosity; Table 2, 100° C.): 5.28 mm^2/s
NOACK ([1]; Table 2, base oil): 6.0%
Pour point (Pour point; Table 2, base oil): −25 °C
VI (Viscosity index (VI); Table 2, base oil): 184

Second part, led by results:

η40° C. (Kinematic viscosity; Table 2, 40° C.): 18.1 mm^2/s
η100° C. (Kinematic viscosity; Table 2, 100° C.): 4.3 mm^2/s
NOACK ([1]; Table 2, base oil): 9.8%
Pour point (Pour point; Table 2, base oil): −65 °C
Flashpoint (Flashpoint; Table 2, base oil): 230 °C
VI (Viscosity index (VI); Table 2, base oil): 151
Compound: CC(C)CCCCCCCOC(=O)CCCCCCCC(=O)OCCCCCCCC(C)C [Diisodecyl azelate]

η40° C. (Kinematic viscosity; Table 2, 40° C.): 34.3 mm^2/s
η100° C. (Kinematic viscosity; Table 2, 100° C.): 5.1 mm^2/s
VI (Viscosity index (VI); Table 2, base oil): 75
Compound: CCCCCCCCCCCCCCOC(=O)CCCCC(=O)OCCCCCCCCCCCCCC [Ditetradecyl adipate]

η40° C. (Kinematic viscosity; Table 2, 40° C.): 33.8 mm^2/s
η100° C. (Kinematic viscosity; Table 2, 100° C.): 6.4 mm^2/s
Pour point (Pour point; Table 2, base oil): −55 °C
Flashpoint (Flashpoint; Table 2, base oil): 243 °C
VI (Viscosity index (VI); Table 2, base oil): 145
Compound: CCCCCCCCCCCCCOC(=O)CCCCCCCC(=O)OCCCCCCCCCCCCC [Ditridecyl azelate]

η40° C. (Kinematic viscosity; Table 2, 40° C.): 25.25 mm^2/s
η100° C. (Kinematic viscosity; Table 2, 100° C.): 5.58 mm^2/s
NOACK ([1]; Table 2, base oil): 7.4%
Pour point (Pour point; Table 2, base oil): −38 °C
VI (Viscosity index (VI); Table 2, base oil): 182
Compound: Dodecanediol dipelargonate

η40° C. (Kinematic viscosity; Table 3, 40° C.): 22 mm^2/s
η100° C. (Kinematic viscosity; Table 3, 100° C.): 4.5 mm^2/s
NOACK ([1]; Table 3, 250° C. for 1 h): 3.6%
Pour point (Pour point; Table 3): −30 °C
Flashpoint (Flashpoint; Table 3): 235 °C
Density (Density): 0.94 g/mL
VI (Viscosity index (VI); Table 3): 140
CCS−20° C. [6]: 221 mPas
CCS−25° C. [6]: 853 mPas
Compound: trimethylolpropane ester [TMP-C8/10, reference compound]
Aquatic toxicity OECD 202 [2]: 600 mg/L
Aquatic toxicity OECD 203 [3]: >10 000 mg/l
Aquatic toxicity OECD 201 [7]: 140 mg/L
